Experimental findings from ChEMBL document CHEMBL4184249, “Structural development of tetrachlorophthalimides as liver X receptor β (LXRβ)-selective agonists with improved aqueous solubility” (Bioorg Med Chem Lett, 2018) are described below.

Calls of active or inactive are those of the source. The calls are words filed in the database; no cut-off is given here.

A word on the EC50: it is the concentration at which the effect is half-maximal. Low values mean greater potency, high ones weaker potency.

Common to all, as to type: cell-based
In test [1] the target is T1, Oxysterols receptor LXR-beta (Homo sapiens, UniProt P55055).
T1 sequence (P55055 whole entry): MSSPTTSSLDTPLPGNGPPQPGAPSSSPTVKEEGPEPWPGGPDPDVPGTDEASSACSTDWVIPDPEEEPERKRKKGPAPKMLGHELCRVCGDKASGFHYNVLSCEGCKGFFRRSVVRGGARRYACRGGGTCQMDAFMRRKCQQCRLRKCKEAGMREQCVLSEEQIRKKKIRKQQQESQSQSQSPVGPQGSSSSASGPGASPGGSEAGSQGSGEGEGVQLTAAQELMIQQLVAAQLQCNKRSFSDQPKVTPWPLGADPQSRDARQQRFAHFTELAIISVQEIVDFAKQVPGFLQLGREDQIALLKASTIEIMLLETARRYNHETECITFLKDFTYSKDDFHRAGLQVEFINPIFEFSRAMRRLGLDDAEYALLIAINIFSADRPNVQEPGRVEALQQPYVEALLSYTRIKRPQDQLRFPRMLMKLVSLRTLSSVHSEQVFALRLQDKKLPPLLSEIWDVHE
The test can be described thus: Agonist activity at human LXRbeta expressed in HEK293 cells co-expressing CMX-beta-galactosidase incubated for 16 hrs by luciferase reporter gene assay. Background: In a reporter assay the amount or activity of a reporter protein is the signal.

For test [2], the target named is T2, Oxysterols receptor LXR-beta (Mus musculus) (UniProt Q60644).
T2 sequence (whole entry): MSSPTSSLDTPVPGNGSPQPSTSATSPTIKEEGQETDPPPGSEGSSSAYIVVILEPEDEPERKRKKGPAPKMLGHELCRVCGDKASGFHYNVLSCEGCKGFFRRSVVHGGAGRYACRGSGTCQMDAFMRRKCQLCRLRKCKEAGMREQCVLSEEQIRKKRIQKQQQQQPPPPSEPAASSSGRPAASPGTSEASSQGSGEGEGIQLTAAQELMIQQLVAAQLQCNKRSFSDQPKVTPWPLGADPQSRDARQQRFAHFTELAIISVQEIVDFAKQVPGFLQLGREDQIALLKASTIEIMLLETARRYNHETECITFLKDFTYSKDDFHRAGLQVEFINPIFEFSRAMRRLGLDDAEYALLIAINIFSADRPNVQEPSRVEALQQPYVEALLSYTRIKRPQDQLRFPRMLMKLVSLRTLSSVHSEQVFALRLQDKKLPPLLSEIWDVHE
Put plainly: Agonist activity at mouse LXRbeta expressed in HEK293 cells co-expressing CMX-beta-galactosidase incubated for 16 hrs by luciferase reporter gene assay relative to T0901317.

The target of test [3] is T3, Peroxisome proliferator-activated receptor alpha (Homo sapiens) (UniProt Q07869).
T3 sequence (whole entry): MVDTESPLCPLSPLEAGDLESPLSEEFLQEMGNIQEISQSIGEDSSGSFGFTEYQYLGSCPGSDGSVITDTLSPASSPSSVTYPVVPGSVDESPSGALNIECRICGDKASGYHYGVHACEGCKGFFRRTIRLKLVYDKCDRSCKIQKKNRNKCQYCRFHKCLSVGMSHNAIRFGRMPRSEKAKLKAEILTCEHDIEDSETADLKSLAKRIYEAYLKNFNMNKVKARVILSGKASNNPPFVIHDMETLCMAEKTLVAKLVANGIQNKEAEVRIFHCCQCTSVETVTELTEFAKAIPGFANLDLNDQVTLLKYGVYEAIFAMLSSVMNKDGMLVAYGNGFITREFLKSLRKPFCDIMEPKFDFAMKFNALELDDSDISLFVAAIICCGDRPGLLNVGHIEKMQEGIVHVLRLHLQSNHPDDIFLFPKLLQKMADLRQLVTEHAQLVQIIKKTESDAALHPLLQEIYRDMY
Put plainly: Agonist activity at GAL4-tagged PPARalpha (unknown origin) expressed in HEK293 cells co-expressing CMX-beta-galactosidase at 0.3 to 30 uM incubated for 16 hrs by luciferase reporter gene assay.

Test [4] concerns the target T4, Retinoic acid receptor beta (Homo sapiens) (UniProt P10826).
T4 sequence (whole entry): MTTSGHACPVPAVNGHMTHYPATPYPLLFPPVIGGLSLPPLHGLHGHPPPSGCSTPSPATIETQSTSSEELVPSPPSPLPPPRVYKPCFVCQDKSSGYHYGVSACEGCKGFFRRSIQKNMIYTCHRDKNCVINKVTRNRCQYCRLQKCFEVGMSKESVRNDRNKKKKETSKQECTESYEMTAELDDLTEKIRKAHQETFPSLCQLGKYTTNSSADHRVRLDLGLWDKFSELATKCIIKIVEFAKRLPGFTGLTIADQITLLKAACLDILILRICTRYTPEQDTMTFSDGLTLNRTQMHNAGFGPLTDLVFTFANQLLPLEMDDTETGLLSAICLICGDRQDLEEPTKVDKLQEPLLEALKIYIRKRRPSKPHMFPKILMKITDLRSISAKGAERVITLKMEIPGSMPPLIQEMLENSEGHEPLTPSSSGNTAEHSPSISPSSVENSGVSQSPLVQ
Put plainly: Agonist activity at GAL4-tagged RARbeta (unknown origin) expressed in HEK293 cells co-expressing CMX-beta-galactosidase at 0.3 to 30 uM incubated for 16 hrs by luciferase reporter gene assay.

Test [5] addresses T5, Retinoic acid receptor RXR-alpha (Homo sapiens) (UniProt P19793).
T5 sequence (whole entry): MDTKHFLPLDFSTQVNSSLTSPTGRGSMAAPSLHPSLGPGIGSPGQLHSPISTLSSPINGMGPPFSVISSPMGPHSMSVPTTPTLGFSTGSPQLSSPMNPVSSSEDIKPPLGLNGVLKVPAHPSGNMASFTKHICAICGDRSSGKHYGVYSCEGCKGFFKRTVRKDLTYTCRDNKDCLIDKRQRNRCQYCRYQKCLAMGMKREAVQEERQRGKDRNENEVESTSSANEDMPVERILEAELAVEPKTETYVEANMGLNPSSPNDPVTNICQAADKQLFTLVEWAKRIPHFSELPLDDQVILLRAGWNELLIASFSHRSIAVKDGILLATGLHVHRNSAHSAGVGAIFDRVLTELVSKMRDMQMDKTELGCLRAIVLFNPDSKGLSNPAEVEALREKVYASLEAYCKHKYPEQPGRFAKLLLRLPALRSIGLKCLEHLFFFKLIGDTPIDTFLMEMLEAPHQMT
Put plainly: Agonist activity at GAL4-tagged RXRalpha (unknown origin) expressed in HEK293 cells co-expressing CMX-beta-galactosidase at 0.3 to 30 uM incubated for 16 hrs by luciferase reporter gene assay.

For test [6], the target named is T6, Oxysterols receptor LXR-beta (Homo sapiens) (UniProt P55055).
T6 sequence (whole entry): T1 sequence (P55055 whole entry)
The test can be described thus: Agonist activity at LXRbeta in human THP1 cells assessed as increase in ABCA1 mRNA expression at 0.1 uM by real-time quantitative RT-PCR method.

Test [7] concerns the target T6, Oxysterols receptor LXR-beta (Homo sapiens). The test can be described thus: Agonist activity at LXRbeta in human THP1 cells assessed as increase in ABCA1 mRNA expression at 1 uM by real-time quantitative RT-PCR method.

For `O=C1c2c(Cl)c(Cl)c(Cl)c(Cl)c2C(=O)N1c1ccccc1/C=C/c1cccs1`, the EC50 in test [1] was found to be 0.559 µM. Further, in test [2], the Efficacy was determined as 24%. In addition, the result in test [3], in test [4] and in test [5] was inactive. Also, the outcome in test [6] and in test [7] was Active.
